Test results taken from article PMC8241751, “Influence of the Dabcyl group on the cellular uptake of cationic peptides: short oligoarginines as efficient cell-penetrating peptides” (Amino Acids, 2021).

Experiments:
Format in all cases: cell-based, human
HeLa cells [1] = test: Confocal microscopy of internalisation into HeLa cells; settings: 37 °C
Method: HeLa cells (2.0 × 10^5 cells) seeded in 35-mm glass-bottomed dishes (Iwaki) were cultured at a 37 °C incubator for 24 h. The cells were then incubated with peptide in α-MEM( +) and α-MEM(–) for 30 min at 37 °C or 4 °C. After washing with PBS( +) containing 0.5% (w/v) heparin, intracellular distribution of the fluorescently-labelled peptides was analysed without fixing using a confocal microscope (FV1000, Olympus). For time-lapse imaging, the cells were placed at 37 °C in a microchamber (MI-IBC-IF, Olympus) attached on the stage of the inverted microscope. The cells were then treated with 5 µM of Dabcyl–Arg6–Lys(Rh)–NH2 or Dabcyl–Arg4–Lys(Cf)–NH2 in α-MEM( +) or α-MEM(–). Time 0 represents the image immediately after the addition of conjugates.

HeLa cells [2] = test: Cellular uptake by flow cytometry on HeLa cells; settings: 30 min; for Cellular uptake in the presence of serum: α-MEM(+), lowest studied concentration (2.5 μM)
Method: HeLa cells (8.0 × 10^4/well) in α-MEM( +) were cultured in 24-well microplates overnight at 37 °C. Cells were treated with fluorescently-labelled peptides (2.5, 5 and 10 μM) in α-MEM( +) and α-MEM without 10% BS [α-MEM(–)], respectively, for 30 min at 37 °C. After being washed with phosphate-buffered saline (PBS), cells were incubated with 0.01% trypsin in PBS for 10 min at 37 °C. The collected cells were then centrifuged at 800 g for 5 min at 4 °C, washed twice with PBS, and subjected to flow cytometry analysis (Attune NxT Flow Cytometer, ThermoFisher). Each sample was analysed over 10,000 events.

HL-60 cells = test: In vitro cytostatic activity (MTT) on HL-60
Method: The cells (HL-60 or MCF-7) were grown to confluency and were plated into 96-well plate with initial cell number of 5 × 10^3 per well. After 24 h incubation at 37 °C, cells were treated with the compounds at 1.28 × 10^–3–100 μM concentration range for 3 h in 200 μL final volume. Control cells were treated with serum free medium at 37 °C for 3 h. After incubation the cells were washed twice with serum free medium. For the analysis of the in vitro cytostatic effect, cells were cultured for an additional 72 h in serum containing medium. On day 4, MTT assay was carried out to determine the IC50 values of the compounds. Briefly, 45 μL of MTT solution was added to each well (2 mg/mL, dissolved in serum-free medium). Following the 4 h incubation, plates were centrifuged at 900 g for 5 min, and the supernatant was removed. The precipitated purple crystals were dissolved in 100 μL DMSO and the absorbance was determined at λ = 540 nm and λ = 620 nm using ELISA plate reader (iEMSReader, Labsystems, Finland). The percent of cytostasis was calculated using the following equation: Cytostatic effect (%) = [1 − (ODtreated/ODcontrol)] × 100; where ODtreated and ODcontrol correspond to the optical densities of the treated and the untreated control cells, respectively. In each case three independent experiments were carried out with four parallel measurements. […] The curves were defined using MicrocalTM Origin (version 9.2) software: cytostasis was plotted as a function of concentration, fitted to a sigmoidal curve, and based on this curve, the IC50 value was determined.

With `CN(C)c1ccc(C(=O)N[C@@H](CCCNC(=N)N)C(=O)N[C@@H](CCCNC(=N)N)C(=O)N[C@@H](CCCNC(=N)N)C(=O)N[C@@H](CCCNC(=N)N)C(=O)N[C@@H](CCCNC(=N)N)C(=O)N[C@@H](CCCNC(=N)N)C(=O)N[C@@H](CCCCNC(=O)c2ccc3c(c2)C(=O)OC32c3ccc(O)cc3Oc3cc(O)ccc32)C(N)=O)cc1` [Dmab–Arg6–Lys(Cf)–NH2] the “Effect on the cell viability (morphology, number of cells)” value (HeLa cells [1]; 1-20 μM, confocal microscopy) was “no effect on the cell viability”.

For “Ac–RRRRRRK(Rh)–NH2 [Ac–Arg6–Lys(Rh)–NH2, acetylated hexaarginine with carboxytetramethylrhodamine on lysine]”, the Intracellular distribution (HeLa cells [1]; α-MEM(–), 5 and 10 μM, 30 min) was “punctate distribution” and the “Cellular uptake in the presence of serum” value (HeLa cells [2]) was “undetectable”.

For `CN(C)c1ccc(/N=N/c2ccc(C(=O)N[C@@H](CCCNC(=N)N)C(=O)N[C@@H](CCCNC(=N)N)C(=O)N[C@@H](CCCNC(=N)N)C(=O)N[C@@H](CCCNC(=N)N)C(=O)N[C@@H](CCCNC(=N)N)C(=O)N[C@@H](CCCNC(=N)N)C(=O)N[C@@H](CCCCN)C(N)=O)cc2)cc1` [Dabcyl–Arg6–Lys–NH2], the IC50 (HL-60 cells; HL-60, 3 h incubation, then 3 days in serum-containing medium, MTT assay, ± sd, three independent experiments with four parallels) was > 100 µM and the “Cytostatic effect on HL-60 cells” value (HL-60 cells; up to c = 100 μM) was “no cytostatic effect”.

With “Dabcyl–RRRRRRK(Rh)–NH2 [Dabcyl–Arg6–Lys(Rh)–NH2, Dabcyl-modified hexaarginine with carboxytetramethylrhodamine on lysine]” the “Time needed to get well detectable signal with diffuse cytosolic distribution” value (HeLa cells [1]; 5 μM, α-MEM(+), time-lapse imaging) was 25 min, the “Threshold concentration above which distribution becomes diffuse” value (HeLa cells [1]; 30 min, confocal microscopy) was “under 5 μM” and the Intracellular distribution (HeLa cells [1]; α-MEM(+) with serum, 10 µM, 30 min) was “diffuse cytosolic localisation”. The Intracellular distribution (HeLa cells [1]; α-MEM(–), 2.5 μM, 30 min) was “diffuse distribution pattern”, the “Morphology of the cells” value (HeLa cells [1]; α-MEM(–), 5 and 10 μM, 30 min, cell number also decreased) was “dramatically changed” and the “Internalisation in the absence of serum compared to serum (+)” value (HeLa cells [2]; 2.5 µM, 37 °C) was “twice”. The “Cellular uptake, times higher than hexaarginine's” value (HeLa cells [2]; absence of serum, 2.5 µM, 37 °C) was 3 times and the “Cellular uptake in the presence of serum” value (HeLa cells [2]) was “markedly pronounced”.
